In patent US20230373985A1 (Origenis Gmbh, priority 2020, published 2023) one finds IC50 data, which are given here for 16 compounds.

Assay [1] addresses T1, wt human TYK2, catalytic site (Homo sapiens, UniProt P29597).
T1 construct: wt human TYK2, catalytic site; purchased SignalChem
T1 sequence (P29597 897-1176 limits assumed): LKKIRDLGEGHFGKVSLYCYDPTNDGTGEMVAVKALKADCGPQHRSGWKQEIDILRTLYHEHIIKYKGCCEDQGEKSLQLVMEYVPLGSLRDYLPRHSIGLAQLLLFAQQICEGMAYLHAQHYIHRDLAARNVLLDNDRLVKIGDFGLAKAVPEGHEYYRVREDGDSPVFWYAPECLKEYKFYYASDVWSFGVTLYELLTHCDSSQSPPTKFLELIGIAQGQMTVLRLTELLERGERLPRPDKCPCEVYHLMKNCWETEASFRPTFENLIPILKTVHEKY
Kind of assay: HTRF KinEASE assay, TYK2. The class given is biochemical. As to conditions: 1 μM ATP; read-out: IC50, Activity Toward TYK2. The gist of the method:
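Kinase reaction run at room temperature for at least 30 min: 2 nM TYK2 with 1 μM ATP, or 1 nM JAK2 with 100 μM ATP, each with 1 μM biotin-TK substrate. Phosphorylation detected by HTRF (60 min antibody/XL665) and evaluated from emission ratios.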
Background: TR-FRET usually uses a lanthanide donor and a delayed reading to cut background.

Assay [2] addresses T2, wt human LRRK2, catalytic site (Homo sapiens, UniProt Q5S007).
T2 construct: 5 nM wt human LRRK2, catalytic site; purchased ThermoFisher
Nature of the assay: TR-FRET LanthaScreen Eu Kinase Binding Assay, LRRK2 wt. As to conditions: one range stated for wt and G2019, read-out: IC50, Activity Toward LRRK2(Wt). Summed up:
(§1)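 Each kinase was incubated with compound, 2 nM europium-labelled antibody and Tracer 236 for one hour at room temperature before plate reading. LRRK2 wt and G2019S used 5 nM protein and 10 nM tracer; NUAK1 used 8 nM protein and 5 nM tracer.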

Assay [3] concerns the target T3, G2019S human LRRK2, catalytic site (Homo sapiens, UniProt Q5S007, G2019S).
T3 construct: G2019S human LRRK2, catalytic site; purchased ThermoFisher
Nature of the assay: TR-FRET LanthaScreen Eu Kinase Binding Assay, LRRK2 G2019S. The note with it: LRRK2(G2019); one range stated for wt and G2019; read-out: IC50, Activity Toward LRRK2(G2019). Summed up: as §1

Assay [4] concerns the target T4, wt human NUAK1, full length (Homo sapiens, UniProt O60285).
T4 construct: 8 nM wt human NUAK1, full length (ThermoFisher/USA); purchased ThermoFisher
T4 sequence (O60285 1-661): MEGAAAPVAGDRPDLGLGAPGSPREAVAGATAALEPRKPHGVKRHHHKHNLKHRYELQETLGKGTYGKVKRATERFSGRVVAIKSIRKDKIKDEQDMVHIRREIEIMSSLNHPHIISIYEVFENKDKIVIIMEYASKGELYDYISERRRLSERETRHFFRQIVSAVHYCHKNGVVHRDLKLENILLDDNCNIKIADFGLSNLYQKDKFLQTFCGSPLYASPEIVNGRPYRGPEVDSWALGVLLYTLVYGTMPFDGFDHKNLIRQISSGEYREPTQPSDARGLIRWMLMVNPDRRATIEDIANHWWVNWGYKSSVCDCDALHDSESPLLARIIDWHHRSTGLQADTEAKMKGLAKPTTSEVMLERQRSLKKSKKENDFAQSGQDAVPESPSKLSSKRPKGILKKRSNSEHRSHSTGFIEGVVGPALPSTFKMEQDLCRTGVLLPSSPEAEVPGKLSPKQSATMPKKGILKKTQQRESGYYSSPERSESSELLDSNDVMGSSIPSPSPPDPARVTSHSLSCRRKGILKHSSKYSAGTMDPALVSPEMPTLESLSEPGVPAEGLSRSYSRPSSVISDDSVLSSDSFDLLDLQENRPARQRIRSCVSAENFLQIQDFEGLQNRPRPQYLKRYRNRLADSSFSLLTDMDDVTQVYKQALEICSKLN
Nature of the assay: TR-FRET LanthaScreen Eu Kinase Binding Assay, NUAK1. As to conditions: read-out: IC50, Activity Toward NUAK1. The gist of the method: as §1

Assay [5] deals with T5, wt human JAK1, catalytic site (Homo sapiens, UniProt P23458).
T5 construct: wt human JAK1, catalytic site; purchased ThermoFisher
Kind of assay: HTRF KinEASE assay, JAK1. The class given is biochemical. The note with it: 2.5 μM ATP; read-out: IC50, Activity Toward JAK1. Summed up:
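Compounds in DMSO dilution were mixed with kinase, biotin-TK substrate and ATP and reacted for ≥30 min at room temperature. Detection reagents (antibody, streptavidin-XL665) were read 60 min later as HTRF, with emission ratios analysed per KinEASE protocol.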

Each structure is given as a SMILES string. Where only a bound is given, the exact number is not on record here.

T3 sequence (Q5S007 970-2527 G2019S limits assumed): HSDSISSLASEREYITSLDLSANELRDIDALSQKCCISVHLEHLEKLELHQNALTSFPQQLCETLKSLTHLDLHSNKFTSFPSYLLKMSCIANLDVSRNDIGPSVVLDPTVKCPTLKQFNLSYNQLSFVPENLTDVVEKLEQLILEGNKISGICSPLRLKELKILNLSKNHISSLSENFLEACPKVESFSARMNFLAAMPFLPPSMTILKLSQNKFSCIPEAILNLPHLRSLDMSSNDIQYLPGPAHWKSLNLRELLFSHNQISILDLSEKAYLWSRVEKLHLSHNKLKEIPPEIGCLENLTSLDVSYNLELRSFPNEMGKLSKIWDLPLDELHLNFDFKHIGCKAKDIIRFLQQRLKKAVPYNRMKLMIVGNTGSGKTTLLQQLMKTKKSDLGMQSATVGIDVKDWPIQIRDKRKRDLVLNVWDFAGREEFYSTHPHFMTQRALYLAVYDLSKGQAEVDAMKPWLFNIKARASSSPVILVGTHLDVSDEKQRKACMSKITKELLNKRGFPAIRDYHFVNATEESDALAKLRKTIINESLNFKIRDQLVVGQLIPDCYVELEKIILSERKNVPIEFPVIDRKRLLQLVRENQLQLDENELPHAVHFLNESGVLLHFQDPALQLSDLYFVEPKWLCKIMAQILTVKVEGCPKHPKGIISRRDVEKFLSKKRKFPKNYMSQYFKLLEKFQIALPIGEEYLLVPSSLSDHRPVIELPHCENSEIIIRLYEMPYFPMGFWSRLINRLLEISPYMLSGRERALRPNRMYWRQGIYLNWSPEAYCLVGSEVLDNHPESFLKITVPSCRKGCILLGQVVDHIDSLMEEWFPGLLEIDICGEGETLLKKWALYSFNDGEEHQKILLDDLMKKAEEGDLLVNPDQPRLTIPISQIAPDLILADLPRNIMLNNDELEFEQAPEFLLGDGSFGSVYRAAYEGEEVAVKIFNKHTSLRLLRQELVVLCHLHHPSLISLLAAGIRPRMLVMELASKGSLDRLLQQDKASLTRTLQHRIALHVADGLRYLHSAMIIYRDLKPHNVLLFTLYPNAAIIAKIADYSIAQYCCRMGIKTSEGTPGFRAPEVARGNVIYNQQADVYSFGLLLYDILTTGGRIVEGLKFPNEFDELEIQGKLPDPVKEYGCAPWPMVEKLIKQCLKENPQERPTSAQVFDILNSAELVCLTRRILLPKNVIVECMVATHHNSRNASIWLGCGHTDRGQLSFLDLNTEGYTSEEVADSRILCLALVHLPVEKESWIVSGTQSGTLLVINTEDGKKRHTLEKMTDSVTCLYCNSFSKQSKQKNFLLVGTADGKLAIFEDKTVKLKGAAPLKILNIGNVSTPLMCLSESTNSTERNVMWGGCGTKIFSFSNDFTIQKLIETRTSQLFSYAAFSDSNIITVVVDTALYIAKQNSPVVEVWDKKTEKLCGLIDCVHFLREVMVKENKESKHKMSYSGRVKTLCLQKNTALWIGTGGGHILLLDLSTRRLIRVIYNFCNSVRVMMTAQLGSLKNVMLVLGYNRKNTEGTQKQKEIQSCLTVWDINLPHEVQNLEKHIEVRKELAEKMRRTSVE
T2 sequence (Q5S007 970-2527 limits assumed): as the sequence (Q5S007 970-2527 G2019S limits assumed) above, with S1050G counted along it
T5 sequence (P23458 875-1153 limits assumed): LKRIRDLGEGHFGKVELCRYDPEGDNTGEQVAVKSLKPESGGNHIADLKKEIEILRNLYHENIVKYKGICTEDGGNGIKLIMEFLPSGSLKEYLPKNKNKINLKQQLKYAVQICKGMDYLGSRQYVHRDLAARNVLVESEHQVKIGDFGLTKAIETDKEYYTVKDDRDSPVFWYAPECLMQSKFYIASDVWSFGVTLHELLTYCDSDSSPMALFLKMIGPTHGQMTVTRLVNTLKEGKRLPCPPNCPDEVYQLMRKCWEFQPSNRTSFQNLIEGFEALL

As a reminder, the IC50 is the concentration needed to halve the response being measured. In the case of `Cn1ccnc1-c1ccc(Nc2cn(-c3c(Cl)cccc3Cl)nc2C(N)=O)cc1` [compound 225, 1-(2,6-dichlorophenyl)-4-((4-(1-methyl-1H-imidazol-2-yl)phenyl)amino)-1H-pyrazole-3-carboxamide], the concentration for half-maximal inhibition (IC50) lay within 0.01 to 0.1 µM in assay [1]; 0.1 to 1 µM in assay [2]; 0.1 to 1 µM in assay [3]; 0.1 to 1 µM in assay [4]; 0.01 to 0.1 µM in assay [5].

Consider `NC(=O)c1nn(-c2c(Cl)cccc2Cl)cc1Nc1ccc(C(=O)N2CCC(N)C2)cc1` (centres unmarked) [compound 317, 4-((4-(3-aminopyrrolidine-1-carbonyl)phenyl)amino)-1-(2,6-dichlorophenyl)-1H-pyrazole-3-carboxamide], for which the 50% inhibitory concentration (IC50) in assay [1] lay within 0.01 to 0.1 µM; in assay [2] it was 0.1 to 1 µM; in assay [3] it was 0.1 to 1 µM; in assay [4], 0.1 to 1 µM; in assay [5] it was 0.01 to 0.1 µM.

Consider `N#Cc1cn(C2COC2)c(-c2ccc(Nc3cn(-c4c(Cl)cccc4Cl)nc3C(N)=O)cc2)n1` [compound 349, 4-((4-(4-cyano-1-(oxetan-3-yl)-1H-imidazol-2-yl)phenyl)amino)-1-(2,6-dichlorophenyl)-1H-pyrazole-3-carboxamide], for which the IC50 was below 0.01 µM in assay [1]; 0.1 to 1 µM in assay [2]; 0.1 to 1 µM in assay [3]; 0.1 to 1 µM in assay [4]; 0.1 to 1 µM in assay [5].

`NC(=O)c1nn(-c2c(Cl)cccc2Cl)cc1Nc1ccc(C(=O)N2CC[C@@H](N3CCCC3)C2)cc1` [compound 331, (R)-4-((4-([1,3′-bipyrrolidine]-1′-carbonyl)phenyl)amino)-1-(2,6-dichlorophenyl)-1H-pyrazole-3-carboxamide]: the IC50 in assay [1] fell in the range of 0.01 to 0.1 µM; in assay [2] it was 0.1 to 1 µM; in assay [3] it was 0.1 to 1 µM; in assay [4], 0.1 to 1 µM; in assay [5], 0.1 to 1 µM.

As for `Cn1nc(C(F)(F)F)nc1-c1ccc(Nc2cn(-c3c(F)cccc3F)nc2C(N)=O)cc1` [compound 285, 1-(2,6-difluorophenyl)-4-((4-(1-methyl-3-(trifluoromethyl)-1H-1,2,4-triazol-5-yl)phenyl)amino)-1H-pyrazole-3-carboxamide], the half-inhibitory concentration (IC50) in assay [1] lay within 0.01 to 0.1 µM; in assay [2], 0.1 to 1 µM; in assay [3] it was 0.1 to 1 µM; in assay [4], 0.1 to 1 µM; in assay [5], 0.01 to 0.1 µM.

With `CC(C)(C)OC(=O)NC1CCN(C(=O)c2ccc(Nc3cn(-c4c(Cl)cccc4Cl)nc3C(N)=O)cc2)C1` (centres unmarked) [compound 323, tert-butyl_(1-(4-((3-carbamoyl-1-(2,6-dichlorophenyl)-1H-pyrazol-4-yl)amino)benzoyl)pyrrolidin-3-yl)carbamate], the IC50 fell in the range of 0.01 to 0.1 µM in assay [1]; 0.1 to 1 µM in assay [2]; 0.1 to 1 µM in assay [3]; 0.1 to 1 µM in assay [4]; 0.1 to 1 µM in assay [5].

On to `CCc1ccnn1-c1ccc(Nc2cn(-c3c(F)cccc3F)nc2C(N)=O)cc1` [compound 287, 1-(2,6-difluorophenyl)-4-((4-(5-ethyl-1H-pyrazol-1-yl)phenyl)amino)-1H-pyrazole-3-carboxamide], for which the 50% inhibitory concentration (IC50) lay in the range of 0.1 to 1 µM in assay [1]; 0.1 to 1 µM in assay [2]; 0.1 to 1 µM in assay [3]; 0.01 to 0.1 µM in assay [4]; 0.1 to 1 µM in assay [5].

`CC(C)(C)NC(=O)c1ccc(Nc2cn(-c3c(F)cccc3F)nc2C(N)=O)cc1` [compound 15, 4-((4-(tert-butylcarbamoyl)phenyl)amino)-1-(2,6-difluorophenyl)-1H-pyrazole-3-carboxamide]: the half-inhibitory concentration (IC50) in assay [1] was 0.01 to 0.1 µM; in assay [2] it was 0.1 to 1 µM; in assay [3] it was 0.1 to 1 µM; in assay [4] it was 0.1 to 1 µM; in assay [5], 0.1 to 1 µM.

Turning to `NC(=O)c1nn(-c2c(F)cccc2Cl)cc1Nc1ccc(-n2ncc3c2CCOC3)cc1` [compound 208, 1-(2-chloro-6-fluorophenyll)-4-((4-(6,7-dihydropyrano[4,3-c]pyrazol-1(4H)-yl)phenyl)amino)-1H-pyrazole-3-carboxamide], the IC50 fell in the range of 0.01 to 0.1 µM in assay [1]; 0.01 to 0.1 µM in assay [2]; 0.01 to 0.1 µM in assay [3]; 0.1 to 1 µM in assay [4]; 0.01 to 0.1 µM in assay [5].

As for `NC(=O)c1nn(-c2c(Cl)cccc2Cl)cc1Nc1ccc(-c2nccn2CC(F)F)cc1` [compound 230, 1-(2,6-dichlorophenyl)-4-((4-(1-(2,2-difluoroethyl)-1H-imidazol-2-yl)phenyl)amino)-1H-pyrazole-3-carboxamide], the IC50 in assay [1] was below 0.01 µM; in assay [2] it was 0.1 to 1 µM; in assay [3], 0.1 to 1 µM; in assay [4], 0.1 to 1 µM; in assay [5], 0.01 to 0.1 µM.

As to `NC(=O)c1nn(-c2c(F)cccc2Cl)cc1Nc1ccc(C(=O)NC2CCCNC2)cc1` (centres unmarked) [compound 38, 1-(2-chloro-6-fluorophenyl)-4-((4-(piperidin-3-ylcarbamoyl)phenyl)amino)-1H-pyrazole-3-carboxamide], the concentration for half-maximal inhibition (IC50) is 0.01 to 0.1 µM in assay [1]; 0.1 to 1 µM in assay [2]; 0.1 to 1 µM in assay [3]; 0.01 to 0.1 µM in assay [4]; 0.01 to 0.1 µM in assay [5].

For `NC(=O)c1nn(-c2c(Cl)cccc2Cl)cc1Nc1ccc(C(=O)N2CC[C@@H](N)C2)cc1` [compound 318, (R)-4-((4-(3-aminopyrrolidine-1-carbonyl)phenyl)amino)-1-(2,6-dichlorophenyl)-1H-pyrazole-3-carboxamide], the concentration for half-maximal inhibition (IC50) in assay [1] lay within 0.01 to 0.1 µM; in assay [2], 0.1 to 1 µM; in assay [3] it was 0.1 to 1 µM; in assay [4], 0.1 to 1 µM; in assay [5] it was 0.01 to 0.1 µM.

For the compound `CN1CCC(NC(=O)c2ccc(Nc3cn(-c4c(F)cccc4Cl)nc3C(N)=O)cc2)CC1` [compound 35, 1-(2-chloro-6-fluorophenyl)-4-((4-((1-methylpiperidin-4-yl)carbamoyl)phenyl)amino)-1H-pyrazole-3-carboxamide], the 50% inhibitory concentration (IC50) lay within 0.01 to 0.1 µM in assay [1]; 0.01 to 0.1 µM in assay [2]; 0.01 to 0.1 µM in assay [3]; 0.1 to 1 µM in assay [4]; 0.01 to 0.1 µM in assay [5].

In the case of `CCNC(=O)c1ccc(Nc2cn(-c3c(F)cccc3F)nc2C(N)=O)cc1` [compound 16, 1-(2,6-difluorophenyl)-4-((4-(ethylcarbamoyl)phenyl)amino)-1H-pyrazole-3-carboxamide], the IC50 was in the range of 0.01 to 0.1 µM in assay [1]; 0.1 to 1 µM in assay [2]; 0.1 to 1 µM in assay [3]; 0.1 to 1 µM in assay [4]; 0.1 to 1 µM in assay [5].

For `N#Cc1cn(CCO)c(-c2ccc(Nc3cn(-c4c(Cl)cccc4Cl)nc3C(N)=O)cc2)n1` [compound 361, 4-((4-(4-cyano-1-(2-hydroxyethyl)-1H-imidazol-2-yl)phenyl)amino)-1-(2,6-dichlorophenyl)-1H-pyrazole-3-carboxamide], the half-inhibitory concentration (IC50) in assay [1] is below 0.01 µM; in assay [2], 0.1 to 1 µM; in assay [3], 0.1 to 1 µM; in assay [4], 0.1 to 1 µM; in assay [5], 0.01 to 0.1 µM.

As for `NC(=O)c1nn(-c2c(Cl)cccc2Cl)cc1Nc1ccc(C(=O)N2CCC(N3CCCC3)C2)cc1` (centres unmarked) [compound 249, 4-((4-([1,3′-bipyrrolidine]-1′-carbonyl)phenyl)amino)-1-(2,6-dichlorophenyl)-1H-pyrazole-3-carboxamide], the IC50 was below 0.01 µM in assay [1]; 0.1 to 1 µM in assay [2]; 0.1 to 1 µM in assay [3]; 0.1 to 1 µM in assay [4]; 0.1 to 1 µM in assay [5].
